Among the data in patent publication EP0997459A1, “Intermediates for preparing retroviral protease inhibiting compounds” (priority 1990, dated 1992) are CC50, inhibition and IC50 values, retold here.

Data set [1] in a line: Cell viability (LC50) in MT4 cells in the antiviral test. It counts as cell-based. The settings on record: human, concentration at which 50% of the cells remain viable. An excerpt:
(§1) The anti-HIV activity of the compounds of the invention can be determined in MT4 cells according to the procedure of Pauwels et. al. (J. Virol. Methods 1988, 20, 309).

Data set [2] has as its target HIV-1 protease (Human immunodeficiency virus type 1 group M subtype B, UniProt P04585). In words: Fluorogenic assay for screening inhibitors of HIV protease. It counts as biochemical. The settings on record: read-out: Percent Inhibition. The method, then:
Fluorogenic Assay for Screening Inhibitors of HIV Protease
The inhibitory potency of the compounds of the invention can be determined by the following method.
A compound of the invention is dissolved in DMSO and a small aliquot further diluted with DMSO to 100 times the final concentration desired for testing. The reaction is carried out in a 6 X 50 mm tube in a total volume of 300 microliters. The final concentrations of the components in the reaction buffer are: 125 mM sodium acetate, 1 M sodium chloride, 5 mM dithiothreitol, 0.5 mg/ml bovine serum albumin, 1.3 µM fluorogenic substrate, 2% (v/v) dimethylsulfoxide, pH 4.5. After addition of inhibitor, the reaction mixture is placed in the fluorometer cell holder and incubated at 30°C for several minutes. The reaction is initiated by the addition of a small aliquot of cold HIV protease. The fluorescence intensity (excitation 340 nm, emmision 490 nM) is recorded as a function of time. The reaction rate is determined for the first six to eight minutes. The observed rate is directly proportional to the moles of substrate cleaved per unit time. The percent inhibition is 100 X (1 - (rate in presence of inhibitor)/(rate in absence of inhibitor)).

Data set [3] concerns HIV-13B. In words: Antiviral activity: inhibition of the cytopathic effect of HIV in MT4 cells (procedure of Pauwels et al.). It counts as cell-based. As to conditions: Human immunodeficiency virus 1, MT4.
Description: as §1
A general note: Damage to the host cells serves as the signal in cytopathic effect assays.

The term CC50 denotes the concentration giving 50% cytotoxicity. One may read the inhibition as the drop in the measured response relative to a control, in per cent. What is called IC50 is the midpoint of a concentration-inhibition curve. High values mean weaker potency, low ones greater potency. `CC(C)[C@H](NC(=O)OCc1ccccn1)C(=O)N[C@@H](Cc1ccccc1)C[C@H](O)[C@H](Cc1ccccc1)NC(=O)OCc1cccnc1` [Example 40, (2S,3S,5S)-5-(N-(N-((2-Pyridinyl)methoxycarbonyl)valinyl)amino)-2-(N-((3-pyridinyl)methoxycarbonyl)amino)-1,6-diphenyl-3-hydroxyhexane]: half-maximal cytotoxicity in data set [1] (CC50) was put at 64 µM. Moreover, the inhibition at 0.0005 µM in data set [2] was determined as 61%. The half-maximal inhibitory concentration (IC50) in data set [3] was 0.23 to 0.55 µM.

`CC(C)[C@H](NC(=O)OCc1ccc2ccccc2n1)C(=O)N[C@@H](Cc1ccccc1)[C@@H](O)C[C@H](Cc1ccccc1)NC(=O)OCc1cccnc1` [Example 326, (2S,3S,5S)-2-(N-(N-((2-Ouinolinyl)methoxycarbonyl)valinyl)amino)-5-(N-((3-pyridinyl)methoxycarbonyl)amino)-1,6-diphenyl-3-hydroxyhexane] came in with a CC50 in data set [1] of 27 µM. Also, the inhibition at 0.0005 µM in data set [2] was 66%. This molecule also returned an IC50 in data set [3] of 0.053 to 0.086 µM.

For the molecule `CC(C)[C@H](NC(=O)OCc1ccc2ccccc2n1)C(=O)N[C@@H](Cc1ccccc1)C[C@H](O)[C@H](Cc1ccccc1)NC(=O)OCc1cccnc1` [Example 327, (2S,3S,5S)-5-(N-(N-((2-Ouinolinyl)methoxycarbonyl)valinyl)amino)-2-(N-((3-pyridinyl)methoxycarbonyl)amino)-1,6-diphenyl-3-hydroxyhexane], in data set [1], it took 84 µM to reach half-maximal cytotoxicity (CC50). In data set [2], the inhibition at 0.0005 µM was 69%. For the same molecule, in data set [3], the IC50 lay within 0.034 to 0.064 µM.

In turn, `O=C(N[C@@H](Cc1ccccc1)C[C@H](O)[C@H](Cc1ccccc1)NC(=O)OCc1ccno1)OCc1ccno1` [Example 334B, (2S,3S,5S)-2,5-Bis-(N-(isoxazol-5-ylmethoxycarbonyl)amino)-1,6-diphenyl-3-hydroxyhexane] returned a cytotoxic concentration (CC50) in data set [1] of 91 µM. In data set [2], the inhibition at 0.001 µM was 56%. The molecule further displayed an IC50 in data set [3] of 0.74 to 1.6 µM.
